Where “and” joins values, the source holds several entries; their conditions need not be identical. Equal values may be shown once.
Experiments:
Assay type in all cases: cell-based, mouse
[1] = tested on: mitochondria of Th9 cells; experiment: Flow cytometry with MitoTracker Deep Red (Figure 4M, 5L, 7F, 7J); details: Figure 5L, single agent, individual replicates, (n = 3)
Description: […] Cells were incubated with the respective dyes, washed, and subjected to flow cytometry or fluorescence microscopy analysis. For ultrastructural assessment, mitochondrial number and diameter were quantified from high-resolution transmission electron microscopy (TEM) images using ImageJ software.

Th9 cells [2] = experiment: IL-9+ Th9 cells with MEK or ERK inhibition (Figure 5H); details: for IL-9 (flow cytometric quantification): Figure 5H, single agent, individual replicates, (n = 5); for IL-9 production: trametinib 10 nM, temuterkib 100 nM, result in words
Description: (A) Identification and ranking of EpA-interacting proteins by affinity pulldown and LC-MS/MS, ordered by in silico binding energy predictions. […] (E) Flow-cytometric analysis of phosphorylated ZAP70 in Th9 cells 10 minutes after TCR activation (mean ± SEM, n = 3). (F) Pathway enrichment analysis of RNA-seq data showing MAPK/ERK-related pathways in EpA-treated Th9 cells. (G) Immunoblot analysis of total and phosphorylated MEK1/2 and ERK1/2 in control and EpA-treated Th9 cells. (H–L) Functional consequences of MEK or ERK inhibition in EpA-treated Th9 cells. […] Data in H–K are shown as mean ± SEM (n = 5) and in L as mean ± SEM (n = 3). Statistical significance was determined using 1-way ANOVA followed by Tukey’s test (E, H–L). *P < 0.05, **P < 0.01, ***P < 0.001, ****P < 0.0001.
(§1) T cell polarization was initiated under plate-bound anti-CD3 (2 μg/mL, clone 17A2, BioXCell, catalog BE0002) and soluble anti-CD28 (1 μg/mL, clone 37.51, BioXCell, catalog BE0015-1) stimulation, with the addition of cytokines and neutralizing antibodies specific to each subset. For Th9 cells, these included IL-4 (10 ng/mL, Peprotech, catalog 400-04), TGF-β (1 ng/mL, EPOTO Biotech, catalog HF-2021), anti–IL-12 (5 μg/mL, clone C17.8, BioXCell, catalog BE0051), and anti–IFN-γ (10 μg/mL, clone XMG1.2, BioXCell, catalog BE0055); for Th1 cells, these included IL-12 (10 ng/mL, GenScript, catalog Z03211-50) and anti–IL-4 (5 μg/mL, clone 11B11, BioXCell, catalog BE0045); for Th2 cells, these included IL-4 (50 ng/mL), anti–IFN-γ (20 μg /mL), anti–IL-12 (5 μg/mL), Th17 cells: IL-6 (20 ng/mL, EPOTO Biotech, catalog MF-1006), TGF-β (1 ng/mL), IL-1β (10 ng/mL, Peprotech, catalog AF-211-11B), anti–IFN-γ (10 μg/mL), anti–IL-12 (5 μg/mL), and anti–IL-4 (5 μg/mL); and for Tregs, these included TGF-β (3 ng/mL). After 3 days of initial culture, cells were either collected for downstream assays or continued in extended culture with refreshed cytokines to maintain lineage commitment.
The following pharmacological inhibitors were used at the indicated final concentrations: trametinib (MEK1/2 inhibitor; Selleck, catalog S4484) at 10 nM; temuterkib (ERK1/2 inhibitor; MCE, catalog HY-101494) at 100 nM; and fatostatin hydrobromide (SREBP inhibitor; MCE, catalog HY-14452A) at 5 μM. Dead cells were detected using Fixable Viability Dye eFluor 780 (eBioscience, catalog 65-0865).

PD-1 on Th9 cells = experiment: Flow cytometry of PD-1 on Th9 cells in vitro (Figure 5K, 7E, S3D); details: for PD1 (flow cytometric quantification): Figure 5K, single agent, individual replicates, (n = 5); for PD-1 expression: MEK/ERK blockade, even with EpA, result in words
Description: (§2) Naive CD4^+ T cells were isolated from the spleens of C57BL/6J or CD45.1^+ OT-II mice using the MojoSort Mouse CD4 Naive T Cell Isolation Kit (BioLegend, catalog 480040), following the manufacturer’s protocol. Purified cells were cultured in RPMI-1640 medium supplemented with 10% FBS, 1% penicillin-streptomycin, and 0.1% β-mercaptoethanol (Gibco, catalog 21985023).
as §1
(§3) Details regarding staining panels (human and mouse), reagents (including clones and catalog numbers), acquisition settings, compensation/controls, and analysis procedures are provided in Supplemental Methods.
(§4) BioLegend, Cat. No. 422301 or Mouse TruStain FcX™, BioLegend, Cat. No. 101319) for 10 minutes at 4°C. For surface marker detection, cells were stained with fluorochrome-conjugated monoclonal antibodies in 96-well V-bottom plates and incubated on ice for 30 minutes. After staining, cells were washed twice and resuspended in FACS buffer for analysis.
(§5) Prior to intracellular cytokine staining, cells were restimulated for 4 hours with PMA (Absin, Cat. No. abs9107), ionomycin (Sigma-Aldrich, Cat. No. I0634), and brefeldin A (MedChemExpress, Cat. No. HY-16592). For intracellular cytokine staining, cells were first surface-stained as described above, then fixed and permeabilized using the BD Cytofix/Cytoperm™ kit (BD Biosciences, Cat. No. 554714) according to the manufacturer ’s protocol. Intracellular proteins were stained with directly conjugated antibodies targeting IL-9, IL-17a, IL-4, IFN-γ, TNF-α, FOXP3, p-ZAP70, Perforin, and […]
(§6) Antibodies used for mouse samples included those against IL-9 (PE, clone RM9A4, Biolegend, Cat. No. 514104), IFN-γ (PE, clone XMG1.2, Biolegend, Cat. No.
(§7) Cat. No. 103138), CD4 (APC/Cy7, clone E-AB-F1353UJ, Elabscience, Cat. No.
(§8) AF18028), CD8α (PerCP/Cy5.5, clone E-AB-F1104UJ, Elabscience, Cat. No. […]
(§9) clone E-AB-F1187UH, Elabscience, Cat. No. AF19854), TNF-α (BV421, clone MP6-XT22, Biolegend, Cat. No. 506328), FOXP3 (PE, clone FJK-16s, eBioscience, Cat. No.
(§10) Perforin (APC, clone S16009A, Biolegend, Cat. No. 154303) and Granzyme B (APC, […]
(§11) clone QA16A02, Biolegend, Cat. No. 372203). […]

TNF-α in Th9 cells = experiment: Flow cytometry of TNF-α in Th9 cells in vitro (Figure 3F, 5I, 7C, S8M-N); details: for TNF (flow cytometric quantification): Figure 5I, single agent, individual replicates, (n = 5); for TNF-α expression: MEK/ERK blockade, even with EpA, result in words
Description: as §2, §1, §3, §4, §5, §6, §7, §8, §9, §10, §11

CD69 on Th9 cells = experiment: Flow cytometry of CD69 on Th9 cells in vitro (Figure 5J, 7D); details: for CD69 (flow cytometric quantification): Figure 5J, single agent, individual replicates, (n = 5); for CD69 expression: MEK/ERK blockade, even with EpA, result in words
Description: as §2, §1, §3, §4, §5, §6, §7, §8, §9, §10, §11

Th9 cells [3] = experiment: IL-9+ Th9 cells with oleic acid (S8I-J); details: OA 50 μM
Source text: LXR-α binding site ChREBP binding site USF1 binding site […] 2.1 1.8 2.1 […] 1.9 […] 20 20 0 […] + OA ✱✱✱✱ MIGR1 M Ctrl + OAEpA […] SREBP1 Ctrl SREBP1EpA ✱✱✱✱ ✱✱✱ 3 2 1 0 TNF-α MIGR1 SREBP1 […] SREBP1EpA Figure S8. EpA-associated modulation of lipid metabolism and its impact on Figure S8 Th9 cell function. (A-C) GSEA of RNA-seq data showing intracellular sterol transport (A), sterol transfer activity (B), and long-chain fatty acid transport (C) pathways in control and EpA-treated Th9 cells. […] (K and L) Flow-cytometric analysis of IL-9 expression in Th9 cells transduced with either control (MIGR1) or SREBP1- […]

SMILES | Mito tracker (flow cytometric quantification) ([1]; listed as ERKin) | IL-9 (flow cytometric quantification) (Th9 cells [2]; listed as ERKin) | IL-9 production (Th9 cells [2]) | PD1 (flow cytometric quantification) (PD-1 on Th9 cells; listed as ERKin) | PD-1 expression (PD-1 on Th9 cells) | TNF (flow cytometric quantification) (TNF-α in Th9 cells; listed as ERKin) | TNF-α expression (TNF-α in Th9 cells) | CD69 (flow cytometric quantification) (CD69 on Th9 cells; listed as ERKin) | CD69 expression (CD69 on Th9 cells) | Th9 polarization with oleic acid (Th9 cells [3]; result in words) | IL-9 gate number (Th9 cells [3]; representative flow plot, Figure S8I, EpA 10 μM) | Mito tracker (flow cytometric quantification) ([1]; listed as MEKin) | IL-9 (flow cytometric quantification) (Th9 cells [2]; listed as MEKin) | PD1 (flow cytometric quantification) (PD-1 on Th9 cells; listed as MEKin) | TNF (flow cytometric quantification) (TNF-α in Th9 cells; listed as MEKin) | CD69 (flow cytometric quantification) (CD69 on Th9 cells; listed as MEKin)
Cn1nccc1Nc1nccc(-c2cc3c(s2)C(C)(C)N(CCN2CCOCC2)C3=O)n1 [temuterkib, reference compound] | 1115 (2×) and 1113 | 0.84 and 0.88 and 0.8 and 0.91 and 1 | almost completely abrogated IL-9 production | 218 and 220 and 219 and 229 and 222 | significantly reduced | 1577 and 1578 and 1574 and 1552 and 1651 | significantly reduced | 21.9 and 20.8 and 21.6 (2×) and 21.7 | significantly reduced | – | – | – | – | – | – | –
CCCCCCCC/C=C\CCCCCCCC(=O)O [oleic acid] | – | – | – | – | – | – | – | – | – | antagonizes Th9 polarization | 0.8 | – | – | – | – | –
CC(=O)Nc1cccc(-n2c(=O)n(C3CC3)c(=O)c3c(Nc4ccc(I)cc4F)n(C)c(=O)c(C)c32)c1 [trametinib, reference compound] | – | – | almost completely abrogated IL-9 production | – | significantly reduced | – | significantly reduced | – | significantly reduced | – | – | 942 and 929 and 920 | 0.7 and 0.66 and 0.89 and 0.62 and 0.69 | 177 and 192 and 187 (2×) and 180 | 1461 and 1480 and 1452 (2×) and 1443 | 19.1 and 22.5 and 21.5 and 19.6 and 18.9
